Source: BindingDB's records for doi:10.7270/Q20P0XHD (Burnham Center For Chemical Genomics, 2011)

Target: T1, C-C chemokine receptor type 6 (Homo sapiens, UniProt P51684)
T1 sequence (P51684 whole entry): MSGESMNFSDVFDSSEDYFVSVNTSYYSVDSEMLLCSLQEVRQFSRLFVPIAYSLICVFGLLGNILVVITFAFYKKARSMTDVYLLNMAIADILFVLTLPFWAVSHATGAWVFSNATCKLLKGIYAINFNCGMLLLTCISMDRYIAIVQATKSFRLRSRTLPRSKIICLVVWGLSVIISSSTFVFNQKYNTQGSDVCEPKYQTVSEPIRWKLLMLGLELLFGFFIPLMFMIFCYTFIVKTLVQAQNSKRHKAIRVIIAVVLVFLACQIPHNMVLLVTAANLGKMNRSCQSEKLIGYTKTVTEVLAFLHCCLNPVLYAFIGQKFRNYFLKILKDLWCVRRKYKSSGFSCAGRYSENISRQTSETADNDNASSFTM
Assay: antagonism of CCR6 beta-arrestin recruitment – cell-based, luminescent beta-arrestin readout, dose response (AID 504728)

Q: With `CC(NO)C(=O)C(=CN1CCCCC1)CN1CCCCC1` (centres undefined) as the molecule, how does the IC50 read?
A: Its IC50 is over 66.6 µM.

Q: For `Cc1cc(C)nc(NNC=C2C(=O)CC(c3ccc(F)cc3)CC2=O)n1` (centres undefined), which IC50 is on record?
A: The IC50 was over 66.6 µM.

Q: Which IC50 does the source give for `O=C1Nc2ccc([N+](=O)[O-])cc2/C1=N/NC(=O)c1cc(-c2ccccc2Cl)nc2ccccc12` [2-(2-chlorophenyl)-N'-(2-keto-5-nitro-indol-3-yl)cinchoninohydrazide] here?
A: Its IC50 is over 66.6 µM.

Q: For `COC1=CC=CC(CN=Nc2nc(Nc3ccc([N+](=O)[O-])cc3)nc(N3CCCC3)n2)C1=O` (centres undefined) [2-hydroxy-3-methoxybenzaldehyde {4-[(4-nitrophenyl)amino]-6-pyrrolidin-1-yl-1,3,5-triazin-2-yl}hydrazone], which IC50 is on record?
A: The IC50 was 1.64 µM.

Q: `O=Nc1c(C2C(=O)Nc3cc(Br)ccc32)[nH]c2ccccc12` (centres undefined) [6-bromoindirubin-3-oxime] was tested. Which IC50 did it give?
A: Its IC50 is over 66.6 µM.

Q: With `O=C1C([N+](=O)[O-])=CC=CC1CN=Nc1ccc2ccccc2n1` (centres undefined) [(6E)-2-nitro-6-[(2-quinolin-2-ylhydrazinyl)methylidene]cyclohexa-2,4-dien-1-one] as the molecule, how does the IC50 read?
A: The IC50 was over 66.6 µM.

Q: How did the IC50 turn out when `COc1cccc(CN=Nc2nc(Nc3ccccc3)nc(-n3nc(C)cc3C)n2)c1O` [(6E)-6-[[2-[4-(3,5-dimethylpyrazol-1-yl)-6-phenylazanyl-1,3,5-triazin-2-yl]hydrazinyl]methylidene]-2-methoxy-cyclohexa-2,4-dien-1-one] was run?
A: Its IC50 is over 66.6 µM.

Q: For `CN(C)c1nc(N=NCc2ccccc2O)nc(Nc2ccc(F)cc2)n1` [(6E)-6-[[2-[4-(dimethylamino)-6-(4-fluoroanilino)-1,3,5-triazin-2-yl]hydrazinyl]methylidene]cyclohexa-2,4-dien-1-one], which IC50 is on record?
A: The IC50 was over 66.6 µM.

Q: With `O=C1C([N+](=O)[O-])=CC(Cl)=CC1CN=Nc1ccccn1` (centres undefined) [MLS000539830] as the molecule, how does the IC50 read?
A: The IC50 was over 66.6 µM.

Q: For `O=C1C=CC([N+](=O)[O-])=CC1CN=Nc1ccccn1` (centres undefined) [MLS000585015], which IC50 is on record?
A: The IC50 was over 66.6 µM.

Q: Which IC50 does the source give for `C/C=C(\C)C(=O)OC1[C@H](OC(C)=O)C2(CO)C(CC1(C)C)C1=CCC3C4(C)CCC(O[C@@H]5O[C@H](C(=O)O)[C@@H](O[C@@H]6O[C@H](CO)[C@@H](O)[C@H](O)[C@H]6O)[C@H](O)[C@H]5O[C@H]5O[C@H](CO)[C@@H](O)[C@H](O)[C@H]5O)[C@](C)(CO)C4CCC3(C)[C@]1(C)C[C@H]2O` (some centres undefined) [MLS002695979] here?
A: Its IC50 is 16.4 µM.

Q: `C=CCSC(N)=NN=CC1C=C(Br)C=C([N+](=O)[O-])C1=O` (centres undefined) [N''-[[(E)-(3-bromo-5-nitro-6-oxo-1-cyclohexa-2,4-dienylidene)methyl]amino]carbamimidothioic acid prop-2-enyl ester] was tested. Which IC50 did it give?
A: The IC50 was over 66.6 µM.

Q: How did the IC50 turn out when `O=C1C(/C=N/c2ccc(N3CCOCC3)cc2)=CC(Cc2ccccc2)C=C1[N+](=O)[O-]` (centres undefined) [SMR000231104] was run?
A: The IC50 was over 66.6 µM.

Q: With `CCCC1CCC(=NNC(=S)NCCc2ccccc2)CC1` (centres undefined) [SMR000347544] as the molecule, how does the IC50 read?
A: The IC50 was over 66.6 µM.

Q: Which IC50 does the source give for `CC(C)(C)C1CCC(=NNC(=S)NCc2ccccc2)CC1` (centres undefined) [SMR000377499] here?
A: The IC50 was over 66.6 µM.

Q: For `COc1ccc(-n2c(O)c(CN=Nc3nc(C)cc(C)n3)c3ccccc3c2=O)cc1OC` [SMR000385482], which IC50 is on record?
A: Its IC50 is 0.594 µM.

Q: For `Cc1cc(N=NCc2ccc(F)cc2)nc(-n2nc(C)cc2C)n1` [SMR000426945], which IC50 is on record?
A: The IC50 was over 66.6 µM.

Q: `CN1C(=O)C(C2CC(c3ccc(Cl)cc3)N=N2)C(=O)N(C)C1=O` (centres undefined) [SMR000439471] was tested. Which IC50 did it give?
A: Its IC50 is 14.9 µM.

Q: How did the IC50 turn out when `N#CC(=C1C=CC(N=O)C(Cl)=C1)c1ccc(Cl)cc1` (centres undefined) [SMR001570423] was run?
A: The IC50 was over 66.6 µM.
